Results as given in ChEMBL document CHEMBL1255481, “The M230L nonnucleoside reverse transcriptase inhibitor resistance mutation in HIV-1 reverse transcriptase impairs enzymatic function and viral replicative capacity” (Antimicrob Agents Chemother, 2010).

Columns and labels:
[1] = system: Human immunodeficiency virus 1; assay: Antiviral activity against HIV 1 subtype B harboring wild type reverse transcriptase infected in human TZM-bl cells assessed as inhibition of viral growth by luciferase reporter gene assay; type: functional, organism-based; details: Human immunodeficiency virus 1, subtype B
[2] = system: Human immunodeficiency virus 1; assay: Antiviral activity against HIV 1 subtype B harboring reverse transcriptase M230L mutant infected in human TZM-bl cells assessed as inhibition of viral growth by luciferase reporter gene assay; type: functional, organism-based; details: Human immunodeficiency virus 1, subtype B
[3] = molecular target: T1, Human immunodeficiency virus type 1 reverse transcriptase (Human immunodeficiency virus 1, UniProt Q72547); assay: Inhibition of RNA-dependent DNA polymerase activity of wild type HIV1 subtype B reverse transcriptase by filter-based filtration assay
[4] = molecular target: T2, Human immunodeficiency virus type 1 reverse transcriptase (Human immunodeficiency virus 1, UniProt Q72547, M230L); assay: Inhibition of RNA-dependent DNA polymerase activity of HIV1 subtype B reverse transcriptase M230L mutant by filter-based filtration assay
[5] = system: Human immunodeficiency virus 1; assay: Selectivity ratio of IC50 for RNA-dependent DNA polymerase activity of HIV1 subtype B reverse transcriptase M230L mutant to IC50 for RNA-dependent DNA polymerase activity of wild type HIV1 subtype B reverse transcriptase
[6] = molecular target: T1, Human immunodeficiency virus type 1 reverse transcriptase; assay: Inhibition of DNA-dependent DNA polymerase activity of wild type HIV1 subtype B reverse transcriptase by gel-based primer extension assay
[7] = molecular target: T2, Human immunodeficiency virus type 1 reverse transcriptase; assay: Inhibition of DNA-dependent DNA polymerase activity of HIV1 subtype B reverse transcriptase M230L mutant by gel-based primer extension assay
[8] = system: Human immunodeficiency virus 1; assay: Selectivity ratio of IC50 for DNA-dependent DNA polymerase activity of HIV1 subtype B reverse transcriptase M230L mutant to IC50 for DNA-dependent DNA polymerase activity of wild type HIV1 subtype B reverse transcriptase
[9] = system: Human immunodeficiency virus 1; assay: Selectivity ratio of EC50 for antiviral activity against HIV 1 subtype B harboring reverse transcriptase M230L mutant to EC50 for antiviral activity against HIV 1 subtype B harboring wild type reverse transcriptase; type: functional

SMILES | EC50 [1] [nM] | EC50 [2] [nM] | IC50 [3] [nM] | IC50 [4] [nM] | Selectivity ratio [5] | IC50 [6] [nM] | IC50 [7] [nM] | Selectivity ratio [8] | Selectivity ratio [9]
O=C1Nc2ccc(Cl)cc2[C@@](C#CC2CC2)(C(F)(F)F)O1 [EFAVIRENZ] | 3.57 | 64.3 |  |  |  |  |  |  | 
Cc1ccnc2c1NC(=O)c1cccnc1N2C1CC1 [NEVIRAPINE] | 163 | 2690 |  |  |  |  |  |  | 
Cc1cc(C#N)cc(C)c1Oc1nc(Nc2ccc(C#N)cc2)nc(N)c1Br [ETRAVIRINE] | 1.25 | 7.27 |  |  |  |  |  |  | 
Cc1cc(C)c(Nc2ccnc(Nc3ccc(C#N)cc3)n2)c(C)c1 [DAPIVIRINE] | 0.91 | 5.8 | 19 | 172 | 9.1 | 131 | 1290 | 9.9 | 6.4
